Values after ≈ are worked out from the molar mass of the structure shown.
Legend:
Escherichia coli [1] = assay: Antibacterial activity against Escherichia coli AS226 carrying pBSDD240A mutant after 18 hrs by broth microdilution method; type: functional; conditions: AS226, 18 h
Escherichia coli [2] = assay: Antibacterial activity against Escherichia coli AS226 carrying pBSDN104D mutant after 18 hrs by broth microdilution method; type: functional; conditions: AS226, 18 h
Escherichia coli [3] = assay: Antibacterial activity against Escherichia coli AS226 after 18 hrs by broth microdilution method; type: functional; conditions: AS226, 18 h
Escherichia coli [4] = assay: Antibacterial activity against Escherichia coli AS226 carrying pBSD-H2 after 18 hrs by broth microdilution method; type: functional; conditions: AS226, 18 h
Escherichia coli [5] = assay: Antibacterial activity against Escherichia coli AS226 carrying pBSDN104A mutant after 18 hrs by broth microdilution method; type: functional; conditions: AS226, 18 h
Escherichia coli [6] = assay: Activity of Escherichia coli beta-lactamase Toho-1 D240A mutant assessed as compound hydrolysis by spectrophotometry
Escherichia coli [7] = assay: Activity of Escherichia coli beta-lactamase Toho-1 N104D mutant assessed as compound hydrolysis by spectrophotometry
Escherichia coli [8] = assay: Antibacterial activity against Escherichia coli AS226 carrying pBSDC69A mutant after 18 hrs by broth microdilution method; type: functional; conditions: AS226, 18 h
Escherichia coli [9] = assay: Activity of Escherichia coli beta-lactamase Toho-1 […] mutant assessed as compound hydrolysis by spectrophotometry
Escherichia coli [10] = assay: Ratio of Kcat to Km for Escherichia coli beta-lactamase Toho-1 N104A mutant assessed as compound hydrolysis by spectrophotometry
Escherichia coli [11] = assay: Ratio of Kcat to Km for Escherichia coli beta-lactamase Toho-1 C69A mutant assessed as compound hydrolysis by spectrophotometry
Escherichia coli [12] = assay: Ratio of Kcat to Km for Escherichia coli beta-lactamase Toho-1 D240A mutant assessed as compound hydrolysis by spectrophotometry
Escherichia coli [13] = assay: Ratio of Kcat to Km for Escherichia coli beta-lactamase Toho-1 D240S mutant assessed as compound hydrolysis by spectrophotometry
Escherichia coli [14] = assay: Activity of Escherichia coli beta-lactamase Toho-1 N104A mutant assessed as compound hydrolysis by spectrophotometry
Escherichia coli [15] = assay: Activity of Escherichia coli beta-lactamase Toho-1 F160T mutant assessed as compound hydrolysis by spectrophotometry
Escherichia coli [16] = assay: Antibacterial activity against Escherichia coli AS226 carrying pBSDF160T mutant after 18 hrs by broth microdilution method; type: functional; conditions: AS226, 18 h
Escherichia coli [17] = assay: Antibacterial activity against Escherichia coli AS226 carrying pBSD6 mutant after 18 hrs by broth microdilution method; type: functional; conditions: AS226, 18 h
Escherichia coli [18] = assay: Activity of Escherichia coli beta-lactamase Toho-1 G232A mutant assessed as compound hydrolysis by spectrophotometry
Escherichia coli [19] = assay: Ratio of Kcat to Km for Escherichia coli beta-lactamase Toho-1 […] mutant assessed as compound hydrolysis by spectrophotometry
Escherichia coli [20] = assay: Activity of Escherichia coli beta-lactamase Toho-1 D240S mutant assessed as compound hydrolysis by spectrophotometry
Escherichia coli [21] = assay: Antibacterial activity against Escherichia coli AS226 carrying pBSDS237A mutant after 18 hrs by broth microdilution method; type: functional; conditions: AS226, 18 h
Escherichia coli [22] = assay: Ratio of Kcat to Km for Escherichia coli beta-lactamase Toho-1 G232A mutant assessed as compound hydrolysis by spectrophotometry
Escherichia coli [23] = assay: Ratio of Kcat to Km for Escherichia coli beta-lactamase Toho-1 F160T mutant assessed as compound hydrolysis by spectrophotometry
Escherichia coli [24] = assay: Antibacterial activity against Escherichia coli AS226 carrying pBSDD240S mutant after 18 hrs by broth microdilution method; type: functional; conditions: AS226, 18 h
Escherichia coli [25] = assay: Activity of Escherichia coli beta-lactamase Toho-1 C69A mutant assessed as compound hydrolysis by spectrophotometry
Escherichia coli [26] = assay: Ratio of Kcat to Km for Escherichia coli beta-lactamase Toho-1 N104D mutant assessed as compound hydrolysis by spectrophotometry

C[C@@H](O)[C@H]1C(=O)N2C(C(=O)O)=C(SCCNC=N)C[C@H]12 [IMIPENEM ANHYDROUS]
MIC (Escherichia coli [1]): 0.125 µg/mL (≈ 0.418 µM) | MIC (Escherichia coli [2]): 0.125 µg/mL (≈ 0.418 µM) | MIC (Escherichia coli [3]): < 0.125 µg/mL | MIC (Escherichia coli [4]): < 0.125 µg/mL | MIC (Escherichia coli [5]): 0.125 µg/mL (≈ 0.418 µM)

O=C(Cc1cccs1)N[C@@H]1C(=O)N2C(C(=O)[O-])=C(C[n+]3ccccc3)CS[C@H]12 [CEPHALORIDINE]
Km (Escherichia coli [6]): 200 µM | kcat (Escherichia coli [6]): 140 s⁻¹ | Km (Escherichia coli [7]): 400 µM | kcat (Escherichia coli [7]): 120 s⁻¹ | MIC (Escherichia coli [1]): 1020 µg/mL (≈ 2460 µM) | MIC (Escherichia coli [8]): 1020 µg/mL (≈ 2460 µM) | Km (Escherichia coli [9]): 270 µM | kcat (Escherichia coli [9]): 320 s⁻¹ | kcat/Km (Escherichia coli [10]): 2.2 ×10⁵ /s/M | kcat/Km (Escherichia coli [11]): 1 ×10⁶ /s/M | kcat/Km (Escherichia coli [12]): 7.1 ×10⁵ /s/M | kcat/Km (Escherichia coli [13]): 7.6 ×10⁵ /s/M | MIC (Escherichia coli [2]): 256 µg/mL (≈ 616 µM) | Km (Escherichia coli [14]): 450 µM | kcat (Escherichia coli [14]): 99 s⁻¹ | Km (Escherichia coli [15]): 430 µM | kcat (Escherichia coli [15]): 470 s⁻¹ | MIC (Escherichia coli [16]): 512 µg/mL (≈ 1230 µM) | MIC (Escherichia coli [17]): 8 µg/mL (≈ 19.3 µM) | Km (Escherichia coli [18]): 290 µM | kcat (Escherichia coli [18]): 440 s⁻¹ | kcat/Km (Escherichia coli [19]): 1.2 ×10⁶ /s/M | Km (Escherichia coli [20]): 250 µM | kcat (Escherichia coli [20]): 190 s⁻¹ | MIC (Escherichia coli [3]): 2 µg/mL (≈ 4.81 µM) | MIC (Escherichia coli [4]): 1020 µg/mL (≈ 2460 µM) | MIC (Escherichia coli [5]): 32 µg/mL (≈ 77 µM) | MIC (Escherichia coli [21]): 2050 µg/mL (≈ 4930 µM) | kcat/Km (Escherichia coli [22]): 1.5 ×10⁶ /s/M | kcat/Km (Escherichia coli [23]): 1.1 ×10⁶ /s/M | MIC (Escherichia coli [24]): 1020 µg/mL (≈ 2460 µM) | Km (Escherichia coli [25]): 300 µM | kcat (Escherichia coli [25]): 300 s⁻¹ | kcat/Km (Escherichia coli [26]): 3 ×10⁵ /s/M

CC(=O)OCC1=C(C(=O)O)N2C(=O)[C@@H](NC(=O)Cc3cccs3)[C@H]2SC1 [CEPHALOTHIN]
Km (Escherichia coli [6]): 98 µM | kcat (Escherichia coli [6]): 320 s⁻¹ | Km (Escherichia coli [7]): 70 µM | kcat (Escherichia coli [7]): 200 s⁻¹ | MIC (Escherichia coli [1]): 2050 µg/mL (≈ 5170 µM) | MIC (Escherichia coli [8]): 2050 µg/mL (≈ 5170 µM) | Km (Escherichia coli [9]): 77 µM | kcat (Escherichia coli [9]): 370 s⁻¹ | kcat/Km (Escherichia coli [10]): 1.2 ×10⁶ /s/M | kcat/Km (Escherichia coli [11]): 4 ×10⁶ /s/M | kcat/Km (Escherichia coli [12]): 3.3 ×10⁶ /s/M | kcat/Km (Escherichia coli [13]): 3.3 ×10⁶ /s/M | MIC (Escherichia coli [2]): 2050 µg/mL (≈ 5170 µM) | Km (Escherichia coli [14]): 140 µM | kcat (Escherichia coli [14]): 180 s⁻¹ | Km (Escherichia coli [15]): 170 µM | kcat (Escherichia coli [15]): 690 s⁻¹ | MIC (Escherichia coli [16]): 2050 µg/mL (≈ 5170 µM) | MIC (Escherichia coli [17]): 128 µg/mL (≈ 323 µM) | Km (Escherichia coli [18]): 150 µM | kcat (Escherichia coli [18]): 620 s⁻¹ | kcat/Km (Escherichia coli [19]): 4.8 ×10⁶ /s/M | Km (Escherichia coli [20]): 120 µM | kcat (Escherichia coli [20]): 410 s⁻¹ | MIC (Escherichia coli [3]): 2 µg/mL (≈ 5.04 µM) | MIC (Escherichia coli [4]): 2050 µg/mL (≈ 5170 µM) | MIC (Escherichia coli [5]): 512 µg/mL (≈ 1290 µM) | MIC (Escherichia coli [21]): 2050 µg/mL (≈ 5170 µM) | kcat/Km (Escherichia coli [22]): 4.1 ×10⁶ /s/M | kcat/Km (Escherichia coli [23]): 4.1 ×10⁶ /s/M | MIC (Escherichia coli [24]): 2050 µg/mL (≈ 5170 µM) | Km (Escherichia coli [25]): 200 µM | kcat (Escherichia coli [25]): 780 s⁻¹ | kcat/Km (Escherichia coli [26]): 2.8 ×10⁶ /s/M

CO/N=C(\C(=O)N[C@@H]1C(=O)N2C(C(=O)O)=C(CSc3cnns3)CS[C@H]12)c1csc(N)n1 [CEFUZONAM]
Km (Escherichia coli [6]): 260 µM | kcat (Escherichia coli [6]): 550 s⁻¹ | MIC (Escherichia coli [1]): 1020 µg/mL (≈ 1990 µM) | MIC (Escherichia coli [8]): 2050 µg/mL (≈ 3990 µM) | Km (Escherichia coli [9]): 140 µM | kcat (Escherichia coli [9]): 130 s⁻¹ | kcat/Km (Escherichia coli [10]): 2.8 ×10⁵ /s/M | kcat/Km (Escherichia coli [11]): 2.3 ×10⁶ /s/M | kcat/Km (Escherichia coli [12]): 2.1 ×10⁶ /s/M | kcat/Km (Escherichia coli [13]): 2 ×10⁶ /s/M | MIC (Escherichia coli [2]): 64 µg/mL (≈ 125 µM) | Km (Escherichia coli [15]): 220 µM | kcat (Escherichia coli [15]): 470 s⁻¹ | MIC (Escherichia coli [16]): 512 µg/mL (≈ 997 µM) | MIC (Escherichia coli [17]): 2 µg/mL (≈ 3.89 µM) | Km (Escherichia coli [18]): 190 µM | kcat (Escherichia coli [18]): 630 s⁻¹ | kcat/Km (Escherichia coli [19]): 9.4 ×10⁵ /s/M | Km (Escherichia coli [20]): 220 µM | kcat (Escherichia coli [20]): 430 s⁻¹ | MIC (Escherichia coli [3]): < 0.125 µg/mL | MIC (Escherichia coli [4]): 2050 µg/mL (≈ 3990 µM) | MIC (Escherichia coli [5]): 16 µg/mL (≈ 31.2 µM) | MIC (Escherichia coli [21]): 1020 µg/mL (≈ 1990 µM) | kcat/Km (Escherichia coli [22]): 3.3 ×10⁶ /s/M | kcat/Km (Escherichia coli [23]): 2.1 ×10⁶ /s/M | MIC (Escherichia coli [24]): 256 µg/mL (≈ 498 µM) | Km (Escherichia coli [25]): 240 µM | kcat (Escherichia coli [25]): 560 s⁻¹ | kcat/Km (Escherichia coli [26]): 5.7 ×10⁵ /s/M

CO/N=C(\C(=O)N[C@@H]1C(=O)N2C(C(=O)O)=C(COC(C)=O)CS[C@H]12)c1csc(N)n1 [CEFOTAXIME]
Km (Escherichia coli [6]): 360 µM | kcat (Escherichia coli [6]): 440 s⁻¹ | MIC (Escherichia coli [1]): 512 µg/mL (≈ 1120 µM) | MIC (Escherichia coli [8]): 1020 µg/mL (≈ 2250 µM) | Km (Escherichia coli [9]): 230 µM | kcat (Escherichia coli [9]): 94 s⁻¹ | kcat/Km (Escherichia coli [10]): 1.2 ×10⁵ /s/M | kcat/Km (Escherichia coli [11]): 1 ×10⁶ /s/M | kcat/Km (Escherichia coli [12]): 1.3 ×10⁶ /s/M | kcat/Km (Escherichia coli [13]): 1.2 ×10⁶ /s/M | MIC (Escherichia coli [2]): 256 µg/mL (≈ 562 µM) | Km (Escherichia coli [15]): 360 µM | kcat (Escherichia coli [15]): 410 s⁻¹ | MIC (Escherichia coli [16]): 256 µg/mL (≈ 562 µM) | MIC (Escherichia coli [17]): 2 µg/mL (≈ 4.39 µM) | Km (Escherichia coli [18]): 259 µM | kcat (Escherichia coli [18]): 440 s⁻¹ | kcat/Km (Escherichia coli [19]): 4.1 ×10⁵ /s/M | Km (Escherichia coli [20]): 320 µM | kcat (Escherichia coli [20]): 370 s⁻¹ | MIC (Escherichia coli [3]): < 0.125 µg/mL | MIC (Escherichia coli [4]): 256 µg/mL (≈ 562 µM) | MIC (Escherichia coli [5]): 16 µg/mL (≈ 35.1 µM) | MIC (Escherichia coli [21]): 32 µg/mL (≈ 70.3 µM) | kcat/Km (Escherichia coli [22]): 1.7 ×10⁶ /s/M | kcat/Km (Escherichia coli [23]): 1.2 ×10⁶ /s/M | MIC (Escherichia coli [24]): 1020 µg/mL (≈ 2250 µM) | Km (Escherichia coli [25]): 350 µM | kcat (Escherichia coli [25]): 370 s⁻¹ | kcat/Km (Escherichia coli [26]): 2.4 ×10⁵ /s/M

Reference: ChEMBL document CHEMBL1687837, “Roles of residues Cys69, Asn104, Phe160, Gly232, Ser237, and Asp240 in extended-spectrum beta-lactamase Toho-1” (2011)
